# Assay results taken from patent US20240018158A1, “BRM TARGETING COMPOUNDS AND ASSOCIATED METHODS OF USE” (Prelude Therapeutics Incorporated, priority 2020, published 2024).
# Legend:
# SMARCA4 = SMARCA4 (Homo sapiens (Human), UniProt P51532); experiment: In Cell Western SMARCA4 degradation in NCIH520 cells; assay type: cell-based; conditions: for DC50: read-out: DC50 (SM4_H520) SMARCA4 degradation potency
# Experimental: (§1) Compound titration and cell culture: Compounds were dissolved in DMSO to make 10 mM stock and 3-fold series dilutions were further conducted keeping the highest concentration 10 μM. NCIH1693 and NCIH520 cells were maintained in PRMI 1640 medium (Corning Cellgro, Catalog #:10-040-CV) supplemented with 10% v/v FBS (GE Healthcare, Catalog #: SH30910.03) by splitting 1:3 twice a week.
# (§2) To determine SMACRA2 and SMARCA4 protein degradation DC50 values in NCIH1693 and NCIH520 cells by In Cell Western (ICW) analysis. Cells were trypsinized and 30 thousand cells/well were seeded into 384-well plates and were allowed to grow for 5 hours at 37° C. Eight-point, 3-fold serial dilutions of compounds from 10 mM stocks were added to the cells (using digital Dispenser D300-Tecan, keeping highest concentration 10 μM and normalizing with DMSO at the highest dispensed volume). Plates were incubated at 37° C. for overnight (maximum 18 hours). Cells incubated with DMSO was used as a vehicle control.
# (§3) To perform In Cell Western, medium was removed from all the wells leaving cells attached to the surface. After removing the medium, cells were fixed within the plates with 40 μL of 4% formaldehyde by incubating at room temperature for 30 minutes, and then permeabilized with wash buffer (1×PBS with 0.1% Triton X-100) by washing the plate 5 times with 50 μL/well. Before labeling with primary antibodies, cells were blocked with 30 μL/well of blocking buffer (Licor Odyssey blocking buffer PBS #927-40000) for 30 minutes at room temperature. To measure SMARCA2 or SMARCA4 proteins, cells were labeled with 20 μL/well of anti SMARCA2 or SMACRA4 antibodies (Cell Signaling BRM #11966S 1:1000, Cell Signaling BRG #49360S 1:1000) diluted in Li-Cor Odyssey blocking buffer-PBS #927-40000, followed by overnight incubation at 4° C.
# (§4) The next day, plates were washed 5×5 minutes with 50 μL/well of washing buffer to remove all the excess primary antibody and then 20 μL from a mixture of secondary antibody and fluorescent DNA specific dye (Goat anti rabbit 1:500 IRDye-800CW #92632211, and DRAQ5™ 1:2000-#ab108410) was added to each well. Plates were incubated for 1 hour at room temperature with gentle rocking. Cells were washed 5 times with 50 μL/well wash buffer, followed by one last wash with DI water, followed by 10 mins drying at 37° C. oven before scanning. Plates were scanned using Li-Cor Odyssey CLx imaging system to acquire integrated intensities at 700 nm and 800 nm. SMARCA signals were normalized to total cell count and then these normalized values were used to calculate the percent degradation relative to DMSO control and maximum inhibition. DC50s were calculated by using the GraphPad Prism4 program based on sigmoidal dose response equation ([Inhibitor] vs. normalized response−Variable slope).
# NCIH1693 cells = experiment: Cell proliferation assay (ATPlite) in NCIH1693 cells; assay type: cell-based; conditions: H1693 cells, day 4; read-out: IC50 (PRO_H1693) antiproliferation potency
# Experimental: One thousand NCIH1693 or NCIH1703 cells per well were seeded in 96 well plate and incubated at 37° C. for 5 hrs. A series of three-fold dilution of compounds from 10 mM stock concentration were added to the cells by using digital Dispenser D300-Tecan, keeping highest concentration 10 μM and normalizing with DMSO at the highest dispensed volume). Cells incubated with DMSO was used as a vehicle control. After compound treatment plates were incubated at 37° C. for 4 days and cell viability was measured by measuring ATP content from the cell lysate using ATPlite Luminescence assay system (PerkinElmer Cat. no #6016941). Percentage of viable cells, relative to DMSO vehicle control and maximum inhibition, was calculated and plotted in Graphpad Prism ([Inhibitor] vs. normalized response−Variable slope) to determine cell proliferation IC50 values on day 4.
# SMARCA2 [1] = target: T1, SMARCA2 (Homo sapiens (Human), UniProt P51531); experiment: In Cell Western SMARCA2 degradation in NCIH1693 cells; assay type: cell-based; conditions: for DC50: read-out: DC50 (SM2_H1693) SMARCA2 degradation potency; for Dmax: NCI-H1693, overnight, read-out: Dmax % (SM2_H1693) maximum SMARCA2 degradation within the concentrations tested
# T1 sequence (P51531 whole entry): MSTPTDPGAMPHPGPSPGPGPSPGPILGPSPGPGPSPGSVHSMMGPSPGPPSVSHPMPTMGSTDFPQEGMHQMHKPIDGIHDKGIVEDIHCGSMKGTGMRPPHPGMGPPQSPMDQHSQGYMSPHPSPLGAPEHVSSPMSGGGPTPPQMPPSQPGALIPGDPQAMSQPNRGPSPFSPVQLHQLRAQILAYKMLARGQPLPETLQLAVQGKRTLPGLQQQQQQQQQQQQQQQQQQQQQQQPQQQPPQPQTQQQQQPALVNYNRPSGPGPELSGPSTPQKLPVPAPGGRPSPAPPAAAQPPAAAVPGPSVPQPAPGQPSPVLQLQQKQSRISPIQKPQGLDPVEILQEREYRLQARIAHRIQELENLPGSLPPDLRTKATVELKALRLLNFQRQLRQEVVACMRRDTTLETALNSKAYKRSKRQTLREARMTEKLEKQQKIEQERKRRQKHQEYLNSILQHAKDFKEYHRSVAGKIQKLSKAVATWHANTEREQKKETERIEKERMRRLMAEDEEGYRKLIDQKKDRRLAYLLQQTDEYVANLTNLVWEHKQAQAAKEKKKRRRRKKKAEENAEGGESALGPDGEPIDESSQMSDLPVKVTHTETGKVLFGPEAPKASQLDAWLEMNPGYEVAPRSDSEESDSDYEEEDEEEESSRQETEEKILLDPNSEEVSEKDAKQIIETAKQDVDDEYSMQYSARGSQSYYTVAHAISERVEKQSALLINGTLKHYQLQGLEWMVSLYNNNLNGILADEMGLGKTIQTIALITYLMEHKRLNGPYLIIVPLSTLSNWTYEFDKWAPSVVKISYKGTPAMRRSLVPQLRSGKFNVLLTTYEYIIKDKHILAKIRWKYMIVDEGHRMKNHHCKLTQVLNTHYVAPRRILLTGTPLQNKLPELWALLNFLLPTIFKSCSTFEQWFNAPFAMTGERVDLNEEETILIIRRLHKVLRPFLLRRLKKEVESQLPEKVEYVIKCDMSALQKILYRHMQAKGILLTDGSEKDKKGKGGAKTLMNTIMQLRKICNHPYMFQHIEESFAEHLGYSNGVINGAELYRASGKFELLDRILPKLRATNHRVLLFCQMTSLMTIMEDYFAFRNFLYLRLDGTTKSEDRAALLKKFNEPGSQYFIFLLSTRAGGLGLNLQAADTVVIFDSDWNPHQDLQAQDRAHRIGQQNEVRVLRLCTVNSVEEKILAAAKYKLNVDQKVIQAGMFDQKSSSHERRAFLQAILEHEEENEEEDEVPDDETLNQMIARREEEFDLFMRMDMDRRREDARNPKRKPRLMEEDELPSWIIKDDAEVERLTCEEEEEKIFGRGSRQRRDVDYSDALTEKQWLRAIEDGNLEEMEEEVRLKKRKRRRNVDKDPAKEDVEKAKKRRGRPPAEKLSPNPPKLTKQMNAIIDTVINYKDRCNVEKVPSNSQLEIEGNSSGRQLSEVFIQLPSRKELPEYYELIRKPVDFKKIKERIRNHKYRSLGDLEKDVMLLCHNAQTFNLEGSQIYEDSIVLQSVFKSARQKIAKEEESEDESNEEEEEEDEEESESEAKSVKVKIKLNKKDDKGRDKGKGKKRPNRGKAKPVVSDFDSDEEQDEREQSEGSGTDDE
# Experimental: as §1, §2, §3, §4
# [2] = target: bromodomain of SMARCA2 protein (Homo sapiens (Human), UniProt P40337+P51531); experiment: SMARCA2 bromodomain ternary binding TR-FRET assay (with VCB); conditions: with saturating VCB (5 μM); read-out: IC50 (SM 2_T) ternary binding potency in SMARCA2 FRET assay
# Chain of bromodomain of SMARCA2 protein (P51531 whole entry, looked up): as the sequence (P51531 whole entry) above
# Chain of bromodomain of SMARCA2 protein (P40337 whole entry, looked up): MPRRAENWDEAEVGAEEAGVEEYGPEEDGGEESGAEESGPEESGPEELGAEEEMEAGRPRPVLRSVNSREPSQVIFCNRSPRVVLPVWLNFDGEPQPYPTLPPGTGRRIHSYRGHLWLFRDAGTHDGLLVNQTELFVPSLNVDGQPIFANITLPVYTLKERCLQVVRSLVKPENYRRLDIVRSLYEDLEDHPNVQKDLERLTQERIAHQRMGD
# Chain of bromodomain of SMARCA2 protein (Q15370 whole entry partner, looked up): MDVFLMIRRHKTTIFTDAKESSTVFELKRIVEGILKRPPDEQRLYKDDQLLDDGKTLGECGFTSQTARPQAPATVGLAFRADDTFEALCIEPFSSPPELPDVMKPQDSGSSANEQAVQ
# Chain of bromodomain of SMARCA2 protein (Q15369 whole entry partner, looked up): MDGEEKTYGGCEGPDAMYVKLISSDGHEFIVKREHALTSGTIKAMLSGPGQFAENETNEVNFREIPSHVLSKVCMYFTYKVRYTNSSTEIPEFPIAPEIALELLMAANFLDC
# Description: Recombinant bromodomain of SMARCA2 protein was purchased from Active Motif (Catalog #: 31449). VHL/ElonginB/ElonginC (VCB)N-terminal his6-tagged VHL (“his6” disclosed as SEQ ID NO: 4) (uniprot accession number P40337; M54-D213; […] […] […] (SEQ ID NO: 1)), Elongin B (Q15370; M1-K104; […] […] (SEQ ID NO: 2)), Elongin C (Q15369; M17-C112; […] […] (SEQ ID NO: 3)) complex were co-expressed and the complex was purified by Ni-affinity, TEV protease was then used to remove his6-tagged (SEQ ID NO: 4), and the complex was further purified by size-exclusion chromatography before use.
# The inhibitory activity of compounds was evaluated in vitro using TR-FRET assay with white 384-well low volume microplate (PerkinElmer ProxiPlate Plus), in which the compound competes the same binding site with the ligand, and thus lead to dose-dependent TR-FRET signal reduction. The cooperativity of the compounds for ternary complex formation with E3 ligase was evaluated in the absence or presence of saturating concentrations of VCB. Testing compounds were dissolved in DMSO at […] and tested in 9-dose IC50. The assay mixture was prepared by mixing SMARCA2 (10 nM final), biotinylated probe (25 nM final), and assay buffer or VCB (5 μM) in 1×AlphaLISA Epigenetics Buffer (PerkinElmer AL008F) with 1 mM TCEP. The compounds in DMSO were added to each well in 3-fold serial dilution by dispenser (TECAN D300E) and incubate for 20 minutes at room temperature before addition of detection reagents, Lance Eu W1024 anti-6×His (0.6 nM final, PerkinElmer AD0110) and Streptavidin Surelight APC (6 nM final, PerkinElmer CR130-100). The plate was then sealed and further incubated at 4° C. overnight in dark, and then was read by Envision multimode plate reader (PerkinElmer, 2102-0010). The ratio of florescence signal at 665/620 was used in data analysis. Percentage inhibition was calculated by % inhibition=100×(FDMSO-F)/(FDMSO-FPC), in which FDMSO is DMSO control, and FPC is positive control. IC50 values were determined from dose response curve by fitting the percent inhibition against compound concentration using GraphPad Prism software.
# SMARCA2 [3] = target: T1, SMARCA2; experiment: In Cell Western SMARCA2 degradation in NCIH520 cells; assay type: cell-based; conditions: for DC50: read-out: DC50 (SM2_H520) SMARCA2 degradation potency
# Experimental: as §1, §2, §3, §4
# Chain of SMARCA4 (P51532 whole entry): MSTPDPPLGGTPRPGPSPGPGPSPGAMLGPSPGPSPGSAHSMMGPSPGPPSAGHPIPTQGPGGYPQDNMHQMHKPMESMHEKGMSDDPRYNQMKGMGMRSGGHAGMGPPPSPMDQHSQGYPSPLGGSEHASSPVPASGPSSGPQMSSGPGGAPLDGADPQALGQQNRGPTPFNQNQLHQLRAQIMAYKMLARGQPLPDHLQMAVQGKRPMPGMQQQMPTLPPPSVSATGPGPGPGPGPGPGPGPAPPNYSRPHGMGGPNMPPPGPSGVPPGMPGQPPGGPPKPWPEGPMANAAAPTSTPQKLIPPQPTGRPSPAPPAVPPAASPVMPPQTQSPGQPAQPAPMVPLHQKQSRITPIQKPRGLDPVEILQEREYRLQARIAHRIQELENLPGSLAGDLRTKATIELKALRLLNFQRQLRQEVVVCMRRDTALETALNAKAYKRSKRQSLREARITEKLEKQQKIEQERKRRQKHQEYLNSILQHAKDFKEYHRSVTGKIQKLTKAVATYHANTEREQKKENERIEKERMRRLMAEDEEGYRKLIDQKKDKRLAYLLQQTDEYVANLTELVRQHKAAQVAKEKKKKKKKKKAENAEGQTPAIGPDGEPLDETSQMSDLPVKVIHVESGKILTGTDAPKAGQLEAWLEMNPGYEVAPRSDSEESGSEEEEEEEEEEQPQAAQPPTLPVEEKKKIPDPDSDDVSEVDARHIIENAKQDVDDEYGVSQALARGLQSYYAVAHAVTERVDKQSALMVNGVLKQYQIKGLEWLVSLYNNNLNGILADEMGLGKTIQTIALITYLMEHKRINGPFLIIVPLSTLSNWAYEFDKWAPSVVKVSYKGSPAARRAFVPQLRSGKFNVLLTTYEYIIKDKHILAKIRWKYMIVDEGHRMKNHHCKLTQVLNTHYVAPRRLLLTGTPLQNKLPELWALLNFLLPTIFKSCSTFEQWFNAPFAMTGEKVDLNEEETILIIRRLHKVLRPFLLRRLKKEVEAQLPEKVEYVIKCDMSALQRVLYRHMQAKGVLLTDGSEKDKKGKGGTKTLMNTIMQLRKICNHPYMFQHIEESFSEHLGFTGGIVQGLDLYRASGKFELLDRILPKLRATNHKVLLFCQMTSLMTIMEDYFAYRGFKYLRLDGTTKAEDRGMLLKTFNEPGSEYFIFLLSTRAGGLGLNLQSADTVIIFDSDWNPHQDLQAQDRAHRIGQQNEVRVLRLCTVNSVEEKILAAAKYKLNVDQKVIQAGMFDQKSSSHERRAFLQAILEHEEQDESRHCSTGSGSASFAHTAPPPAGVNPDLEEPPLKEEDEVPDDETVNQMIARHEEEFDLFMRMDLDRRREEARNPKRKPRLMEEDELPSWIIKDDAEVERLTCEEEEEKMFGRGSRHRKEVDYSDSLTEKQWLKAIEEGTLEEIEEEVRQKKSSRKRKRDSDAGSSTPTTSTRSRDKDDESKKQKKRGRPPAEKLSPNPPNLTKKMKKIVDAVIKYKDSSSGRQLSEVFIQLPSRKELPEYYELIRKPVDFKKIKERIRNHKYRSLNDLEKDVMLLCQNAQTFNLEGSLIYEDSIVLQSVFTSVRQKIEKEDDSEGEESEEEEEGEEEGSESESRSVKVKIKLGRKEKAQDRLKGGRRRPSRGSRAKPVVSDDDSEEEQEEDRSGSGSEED
SMILES,"DC50 (SMARCA4; H520 cells, overnight) [nM]","Dmax (SMARCA4; NCI-H520, overnight, read-out: Dmax % (SM4_H520) maximum SMARCA4 degradation within the concentrations tested) [%]",IC50 (NCIH1693 cells) [nM],"DC50 (SMARCA2 [1]; H1693 cells, overnight) [nM]",Dmax (SMARCA2 [1]) [%],IC50 [2] [nM],"DC50 (SMARCA2 [3]; H520 cells, overnight) [nM]","Dmax (SMARCA2 [3]; NCI-H520, overnight, read-out: Dmax % (SM2_H520) maximum SMARCA2 degradation within the concentrations tested) [%]","Dmax % (SM4_H520) maximum SMARCA4 degradation within the concentrations tested (SMARCA4; H520 cells, overnight)","Dmax % (SM2_H1693) maximum SMARCA2 degradation within the concentrations tested (SMARCA2 [1]; H1693 cells, overnight)","Dmax % (SM2_H520) maximum SMARCA2 degradation within the concentrations tested (SMARCA2 [3]; H520 cells, overnight)"
"Cc1scnc1-c1ccc(CNC(=O)[C@@H]2C[C@@H](O)CN2C(=O)[C@@H](NC(=O)CN2CCN3c4cc(-c5ccccc5O)nnc4NCC3C2)C(C)(C)C)cc1 (single isomer, unassigned) [Example 2a]",1000 to 10000,50 to 75,100 to 1000,100 to 1000,> 75,100 to 1000,100 to 1000,> 75,,,
"Cc1ncsc1-c1ccc([C@H](C)NC(=O)[C@@H]2C[C@@H](O)CN2C(=O)[C@@H](NC(=O)CN2CCN3c4cc(-c5ccccc5O)nnc4NCC3C2)C(C)(C)C)cc1 (single isomer, unassigned) [Example 1b]",100 to 1000,,100 to 1000,< 100,> 75,< 100,100 to 1000,,,,
"Cc1scnc1-c1ccc(CNC(=O)[C@@H]2C[C@@H](O)CN2C(=O)[C@@H](NC(=O)CN2CCN3c4cc(-c5ccccc5O)nnc4NCC3C2)C(C)(C)C)cc1 (single isomer, unassigned) [Example 2b]",≥ 10000,,1000 to 10000,1000 to 10000,,< 100,1000 to 10000,,C (C = Dmax <= 50%),A (A = Dmax > 75%),A (A = Dmax > 75%)
